DBAASP
Converted amounts (≈) assume the structure as drawn.

What was measured:
Experiment in all cases: ≥ marks a high value that may be exact or a test limit, other limits are often not marked, values filed in µg/mL are converted to µM
Escherichia coli = test system: Escherichia coli
Staphylococcus aureus = test system: Staphylococcus aureus
[1] = test system: Escherichia coli ATCC 25922
[2] = test system: Staphylococcus aureus ATCC 29213
[3] = test system: Pseudomonas aeruginosa ATCC 27853

Row | Structure (SMILES) | MIC (Escherichia coli) | MIC (Staphylococcus aureus) | MIC [1] | MIC [2] | MIC [3]
1 | CC[C@H](C)[C@H](NC(=O)[C@H](Cc1c[nH]c2ccccc12)NC(=O)[C@H](CCCCN)NC(=O)[C@@H](NC(=O)[C@H](CC(C)C)NC(=O)[C@H](CCCCN)NC(=O)CNC(=O)[C@@H](NC(=O)[C@@H](NC(=O)[C@H](CO)NC(=O)[C@@H](NC(=O)[C@@H](NC(=O)[C@H](CCCCN)NC(=O)[C@H](CCC(N)=O)NC(=O)[C@H](C)N)[C@@H](C)CC)[C@@H](C)CC)[C@@H](C)O)[C@@H](C)CC)C(C)C)C(=O)N[C@H](C(=O)N[C@@H](CCCCN)C(=O)N[C@H](C(=O)N[C@H](C(=O)N[C@@H](CC(N)=O)C(=O)N[C@@H](CCCCN)C(=O)N[C@@H](Cc1ccccc1)C(=O)N[C@H](C(=O)N[C@@H](CCCCN)C(=O)N[C@@H](CCCCN)C(=O)O)[C@@H](C)O)C(C)C)[C@@H](C)O)[C@@H](C)CC [AQKIISTIGKLVKWIIKTVNKFTKK] | 2.5 µM (≈ 7.22 µg/mL) | 10.3 µM (≈ 29.7 µg/mL) |  |  | 
2 | CC[C@H](C)[C@H](NC(=O)[C@@H](N)Cc1ccccc1)C(=O)N[C@@H](CC(C)C)C(=O)N[C@@H](CCCCN)C(=O)N[C@@H](CCCN=C(N)N)C(=O)N[C@@H](CO)C(=O)N[C@@H](Cc1ccc(O)cc1)C(=O)N1CCC[C@H]1C(=O)N[C@@H](CCC(N)=O)C(=O)N[C@@H](Cc1ccc(O)cc1)C(=O)N[C@@H](Cc1ccc(O)cc1)C(N)=O [FILKRSYPQYY] |  |  | 406 µM (≈ 600 µg/mL) | > 474 µM | 
3 | CC[C@H](C)[C@H](NC(=O)[C@H](CCCN=C(N)N)NC(=O)[C@H](CCC(N)=O)NC(=O)[C@H](Cc1cnc[nH]1)NC(=O)[C@@H](NC(=O)[C@H](CCCN=C(N)N)NC(=O)[C@H](CCCCN)NC(=O)[C@@H](N)Cc1ccccc1)[C@@H](C)CC)C(=O)N[C@@H](CCCCN)C(=O)N[C@@H](CC(=O)O)C(=O)N[C@@H](Cc1ccccc1)C(=O)N[C@@H](CC(C)C)C(=O)N[C@@H](CCCN=C(N)N)C(=O)O [FKRIHQRIKDFLR] |  |  | 5 µM (≈ 8.79 µg/mL) | > 40 µM | 
4 | CC[C@H](C)[C@H](NC(=O)[C@H](CCCN=C(N)N)NC(=O)[C@H](CCC(N)=O)NC(=O)[C@@H](NC(=O)[C@H](CCC(N)=O)NC(=O)[C@H](CCCN=C(N)N)NC(=O)[C@H](CCCCN)NC(=O)[C@@H](N)Cc1ccccc1)C(C)C)C(=O)N[C@@H](CCCCN)C(=O)N[C@@H](CC(=O)O)C(=O)N[C@@H](Cc1ccccc1)C(=O)N[C@@H](CC(C)C)C(=O)N[C@@H](CCCN=C(N)N)C(=O)O [FKRQVQRIKDFLR] |  |  | 10 µM (≈ 17.3 µg/mL) | > 40 µM | 
5 | NCC(=O)N[C@@H](CCCN=C(N)N)C(=O)N[C@@H](CCCN=C(N)N)C(=O)N1CCC[C@H]1C(=O)N[C@@H](CCCN=C(N)N)C(=O)N1CCC[C@H]1C(=O)N[C@@H](CCCN=C(N)N)C(=O)N1CCC[C@H]1C(=O)N[C@@H](CCCN=C(N)N)C(=O)N1CCC[C@H]1C(=O)N[C@@H](Cc1ccccc1)C(=O)N[C@@H](Cc1ccccc1)C(=O)N[C@@H](Cc1ccccc1)C(=O)N[C@@H](Cc1ccccc1)C(=O)N[C@@H](Cc1ccccc1)C(=O)O [GRRPRPRPRPFFFFF] |  |  | 20 µM (≈ 39.6 µg/mL) | 2.5 µM (≈ 4.95 µg/mL) | 20 µM (≈ 39.6 µg/mL)
6 | CC[C@H](C)[C@H](NC(=O)[C@@H](NC(=O)[C@H](CCCCN)NC(=O)[C@@H](NC(=O)[C@H](C)NC(=O)[C@@H](NC(=O)[C@H](Cc1cnc[nH]1)NC(=O)CNC(=O)[C@H](C)NC(=O)[C@H](CC(C)C)NC(=O)[C@H](CC(=O)O)NC(=O)[C@H](CCCCN)NC(=O)[C@H](C)NC(=O)[C@H](C)NC(=O)CNC(=O)[C@H](CCCCN)NC(=O)[C@H](CC(C)C)NC(=O)[C@@H](NC(=O)[C@H](CC(=O)O)NC(=O)[C@H](CC(C)C)NC(=O)[C@@H](NC(=O)CN)C(C)C)[C@@H](C)CC)C(C)C)[C@@H](C)O)C(C)C)C(=O)O [GVLDILKGAAKDLAGHVATKVI] |  |  | 3.6 µM (≈ 7.88 µg/mL) | 14.6 µM (≈ 32 µg/mL) | 

Other lines, results leading:

Row | MIC (Escherichia coli) | MIC (Staphylococcus aureus) | MIC [1] | MIC [2] | MIC [3] | Structure (SMILES)
7 |  |  |  | 9.44 µM (≈ 25 µg/mL) |  | CC(C)C[C@H](NC(=O)[C@H](Cc1c[nH]c2ccccc12)NC(=O)[C@H](CCCCN)NC(=O)[C@H](CCCCN)NC(=O)[C@H](C)NC(=O)[C@H](CO)NC(=O)[C@H](Cc1cnc[nH]1)NC(=O)[C@H](CC(C)C)NC(=O)[C@H](Cc1ccccc1)NC(=O)[C@H](CCCCN)NC(=O)[C@@H](N)CCCCN)C(=O)N[C@@H](CCCCN)C(=O)N[C@@H](C)C(=O)N[C@@H](Cc1ccccc1)C(=O)N[C@H](C(=O)N[C@@H](CCCCN)C(=O)N[C@@H](CC(C)C)C(=O)N[C@@H](Cc1ccccc1)C(=O)N[C@@H](CCCCN)C(=O)N[C@@H](CC(N)=O)C(=O)N[C@@H](Cc1c[nH]c2ccccc12)C(=O)O)C(C)C [KKFLHSAKKWLKAFVKLFKNW]
8 |  |  | 20 µM (≈ 34.7 µg/mL) | 14.1 µM (≈ 24.5 µg/mL) |  | CC(=O)N[C@@H](CCCCN)C(=O)N[C@@H](CC(C)C)C(=O)N[C@@H](CC(C)C)C(=O)N[C@@H](CCCCN)C(=O)N[C@@H](CC(C)C)C(=O)N[C@@H](CC(C)C)C(=O)N[C@@H](CCCCN)C(=O)N[C@@H](CCCCN)C(=O)N[C@@H](CC(C)C)C(=O)N[C@@H](CC(C)C)C(=O)N[C@@H](CCCCN)C(=O)N[C@@H](CC(C)C)C(=O)N[C@@H](CC(C)C)C(=O)N[C@@H](CCCCN)C(N)=O [KLLKLLKKLLKLLK]
9 |  |  | 5 µM (≈ 9.18 µg/mL) | > 40 µM |  | CC(C)C[C@H](NC(=O)[C@H](CCCCN)NC(=O)[C@H](CC(C)C)NC(=O)[C@H](CC(C)C)NC(=O)[C@H](CCCCN)NC(=O)[C@H](CCCCN)NC(=O)[C@H](CCCCN)NC(=O)[C@H](CC(C)C)NC(=O)[C@H](CCCCN)NC(=O)[C@H](CC(C)C)NC(=O)[C@H](CC(C)C)NC(=O)[C@H](CCCCN)NC(=O)[C@H](CCCCN)NC(=O)[C@@H](N)CC(C)C)C(=O)N[C@@H](C)C(=O)NCC(=O)O [LKKLLKLKKKLLKLAG]
10 |  |  | 2.5 µM (≈ 4.55 µg/mL) | > 40 µM |  | CC(C)C[C@H](NC(=O)[C@H](CCCCN)NC(=O)[C@H](CC(C)C)NC(=O)[C@H](CC(C)C)NC(=O)[C@H](CCCCN)NC(=O)[C@H](CCCCN)NC(=O)[C@H](CC(N)=O)NC(=O)[C@H](CC(C)C)NC(=O)[C@H](CCCCN)NC(=O)[C@H](CC(C)C)NC(=O)[C@H](CC(C)C)NC(=O)[C@H](CCCCN)NC(=O)[C@H](CCCCN)NC(=O)[C@@H](N)CC(C)C)C(=O)N[C@@H](C)C(=O)NCC(=O)O [LKKLLKLNKKLLKLAG]
11 |  |  | 98.3 µM (≈ 125 µg/mL) | 49.2 µM (≈ 62.5 µg/mL) |  | CC(C)[C@H](NC(=O)[C@H](Cc1c[nH]c2ccccc12)NC(=O)[C@H](CCCCN)NC(=O)[C@@H](N)CCCN=C(N)N)C(=O)N[C@@H](C)C(=O)N[C@@H](Cc1c[nH]c2ccccc12)C(=O)N[C@@H](CCCN=C(N)N)C(=O)N[C@@H](CC(N)=O)C(=O)N[C@@H](CCCN=C(N)N)C(=O)O [RKWVAWRNR]
12 |  |  | 10 µM (≈ 19.2 µg/mL) | 10 µM (≈ 19.2 µg/mL) | 20 µM (≈ 38.4 µg/mL) | NC(=O)[C@H](Cc1ccccc1)NC(=O)[C@H](Cc1ccccc1)NC(=O)[C@H](Cc1ccccc1)NC(=O)[C@H](Cc1ccccc1)NC(=O)[C@H](Cc1ccccc1)NC(=O)[C@@H]1CCCN1C(=O)[C@H](CCCN=C(N)N)NC(=O)[C@@H]1CCCN1C(=O)[C@H](CCCN=C(N)N)NC(=O)[C@@H]1CCCN1C(=O)[C@H](CCCN=C(N)N)NC(=O)[C@@H]1CCCN1C(=O)[C@H](CCCN=C(N)N)NC(=O)[C@@H](N)CCCN=C(N)N [RRPRPRPRPFFFFF]
13 |  |  | 40 µM (≈ 69.8 µg/mL) | 40 µM (≈ 69.8 µg/mL) | 20 µM (≈ 34.9 µg/mL) | NC(=O)[C@H](Cc1c[nH]c2ccccc12)NC(=O)[C@H](Cc1c[nH]c2ccccc12)NC(=O)[C@H](Cc1c[nH]c2ccccc12)NC(=O)[C@@H]1CCCN1C(=O)[C@H](CCCN=C(N)N)NC(=O)[C@@H]1CCCN1C(=O)[C@H](CCCN=C(N)N)NC(=O)[C@@H]1CCCN1C(=O)[C@H](CCCN=C(N)N)NC(=O)[C@@H]1CCCN1C(=O)[C@H](CCCN=C(N)N)NC(=O)[C@@H](N)CCCN=C(N)N [RRPRPRPRPWWW]
